In US8778975B2, “Helicobacter pylori eradicating agent having inhibitory activity on gastric acid secretion” (Link Geonomics, Inc., priority 2006, dated 2014):
Values after ≈ are worked out from the molar mass of the structure shown. Read-outs that look alike come from different tables or passages of the source.

Assays:
[1] = system: Helicobacter pylori standard strains ATCC 43504, ATCC 43629, ATCC 43570 and clinically separated strains; test: Anti-Helicobacter pylori activity (MIC), standard and clinically separated strains, Pharmacological Test Example 2; type: cell-based
Experimental: For the bacterium Helicobacter pylori, standard strains ATCC 43504, ATCC 43629 and ATCC 43570 were used to perform in vitro tests in Columbia agar medium. The bacteria were cultured at 37° C. and pH 7.0 for 3 days. On the 4th day, the minimum growth inhibitory concentration (MIC, μg/ml) was determined. Each of the specimens was dissolved in a 1% DMSO solution. Furthermore, amoxicillin and clarithromycin were used as control drugs of antibacterial substance. Further, the compound described in the article of Thomas C. Kuehler (J. Med.

[2] = system: clinically separated clarithromycin-resistant strains and amoxicillin-insensitive strains of Helicobacter pylori; test: Antibacterial potency (MIC) against clarithromycin-resistant and amoxicillin-insensitive strains, Pharmacological Test Example 3; type: cell-based
Experimental: A test was conducted on the antibacterial potency of the compounds of the present invention against the clarithromycin-resistant strains and amoxicillin-insensitive strains of the bacterium Helicobacter pylori.
A test was conducted on the antibacterial potency of the compounds of the present invention, using clinically separated clarithromycin-resistant strains and amoxicillin-insensitive strains of the bacterium Helicobacter pylori. For the respective strains, in vitro tests were performed in Columbia agar medium. Each of the specimens was dissolved in a 1% DMSO solution. The bacteria were cultured at 37° C. and pH 7.0 for 3 days, and on the 4th day, the minimum growth inhibitory concentration (MIC, μg/ml) was determined.

[3] = system: Escherichia coli (ATCC 10536); test: Antibacterial test (MIC), Gram-negative bacteria; type: cell-based
Excerpt: (§1) As for the Gram-negative bacteria, E. coli (ATCC 10536, ATCC 25922), Klebsiella pneumonia (ATCC 10031), Proteus vulgaris (ATCC 13315), Pseudomonas aeruginosa (ATCC 9027), and Salmonella typhimurium (ATCC 13311) were used, and as for the Gram-positive bacteria, Staphylococcus aureus, MRSA (ATCC 33591), Staphylococcus epidermidis (ATCC 12228), Streptococcus pneumonia (ATCC 6301), Mycobacterium ranae (ATCC 110), and Enterococcus faecalis (VRE, ATCC 51575) were used. The various bacteria were cultured at 37° C. for 20 to 48 hours by conventional methods, and the minimum growth inhibitory concentration (MIC, μg/ml) was determined. Each of the specimens was dissolved in a 1% DMSO solution. Furthermore, amoxicillin, clarithromycin and gentamycin were used as control drugs of antibacterial substance.

[4] = system: Escherichia coli (ATCC 25922); test: Antibacterial test (MIC), Gram-negative bacteria; type: cell-based
Excerpt: as §1

[5] = system: Proteus vulgaris (ATCC 13315); test: Antibacterial test (MIC), Gram-negative bacteria; type: cell-based
Excerpt: as §1

[6] = system: Pseudomonas aeruginosa (ATCC 9027); test: Antibacterial test (MIC), Gram-negative bacteria; type: cell-based
Excerpt: as §1

[7] = system: Salmonella typhimurium (ATCC 13311); test: Antibacterial test (MIC), Gram-negative bacteria; type: cell-based
Excerpt: as §1

[8] = system: Enterococcus faecalis (VRE, ATCC 51575); test: Antibacterial test (MIC), Gram-positive bacteria; type: cell-based
Excerpt: as §1

[9] = system: Staphylococcus aureus, MRSA (ATCC 33591); test: Antibacterial test (MIC), Gram-positive bacteria; type: cell-based
Excerpt: as §1

[10] = system: Streptococcus pneumonia (ATCC 6301); test: Antibacterial test (MIC), Gram-positive bacteria; type: cell-based; settings: Streptococcus pneumoniae, ATCC6301
Excerpt: as §1

[11] = system: Helicobacter pylori bacteria (ATCC 43504); test: Antiulcer action and bacteria eradicating action in Helicobacter pylori-infected Mongolian gerbils; type: in vivo; settings: for Number of Bacteria (average) (log CFU): gastric mucosa
Experimental: Mongolian gerbils were experimentally infected with Helicobacter pylori bacteria, and the antiulcer action and the Helicobacter pylori bacteria eradicating action of the compounds of the present invention were tested.
Male Mongolian gerbils (30 to 40 g), five animals in each group, were orally inoculated with Helicobacter pylori bacteria (ATCC 43504) at 1.6×10^7 CFU/0.5 ml/mouse, and bred for one week, and then drug was administered two times a day for two weeks. Thereafter, the […] were bred for three weeks, and then the rats were fasted for 18 hours and subjected to abdominal section, followed by autopsy. The severity of gastric ulcer, the number of Helicobacter pylori bacteria in the gastric mucosa, and the antibody titer were measured.

[12] = system: Klebsiella pneumonia (ATCC 10031); test: Antibacterial test (MIC), Gram-negative bacteria; type: cell-based
Excerpt: as §1

[13] = system: Mycobacterium ranae (ATCC 110); test: Antibacterial test (MIC), Gram-positive bacteria; type: cell-based
Excerpt: as §1

[14] = system: Staphylococcus epidermidis (ATCC 12228); test: Antibacterial test (MIC), Gram-positive bacteria; type: cell-based
Excerpt: as §1

[15] = Clinically separated strain PT1045482
[16] = Clinically separated strain PT1045483
[17] = Clinically separated strain PT1045484
[18] = Helicobacter pylori, AMO-insensitive strain NO. 4, read-out: MIC
[19] = Helicobacter pylori, CAM-resistant strain NO. 1, read-out: MIC
[20] = Helicobacter pylori, CAM-resistant strain NO. 2, read-out: MIC
[21] = Helicobacter pylori, CAM-resistant strain NO. 3, read-out: MIC
[22] = Helicobacter pylori, CAM-resistant strain NO. 4, read-out: MIC
[23] = Salmonella enterica, read-out: MIC

Row | Molecule | MIC [1, 15] [µg/mL] | MIC [1, 16] [µg/mL] | MIC [1, 17] [µg/mL] | MIC ([1]; Standard strain ATCC 43504) [µg/mL] | MIC ([1]; Standard strain ATCC 43570) [µg/mL] | MIC ([1]; Standard strain ATCC 43629) [µg/mL] | MIC [2, 18] [µg/mL] | MIC [2, 19] [µg/mL] | MIC [2, 20] [µg/mL] | MIC [2, 21] [µg/mL] | MIC [2, 22] [µg/mL] | MIC ([3]; ATCC10536, read-out: MIC) [µg/mL] | MIC ([4]; ATCC25922, read-out: MIC) [µg/mL] | MIC ([5]; ATCC13315, read-out: MIC) [µg/mL] | MIC ([6]; ATCC9027, read-out: MIC) [µg/mL] | MIC [7, 23] [µg/mL] | MIC [8] [µg/mL] | MIC ([9]; read-out: MIC) [µg/mL] | MIC [10] [µg/mL] | also measured
1 | CC1(C)S[C@@H]2[C@H](NC(=O)[C@H](N)c3ccc(O)cc3)C(=O)N2[C@H]1C(=O)O [AMPC, Amoxicillin] | 0.06 (≈ 0.164 µM) | 0.06 (≈ 0.164 µM) | 0.06 (≈ 0.164 µM) | 0.06 (≈ 0.164 µM) | < 0.015 | 0.06 (≈ 0.164 µM) | 0.12 (≈ 0.328 µM) | < 0.015 | < 0.015 | < 0.015 | < 0.015 | 6.25 (≈ 17.1 µM) | 6.25 (≈ 17.1 µM) | 6.25 (≈ 17.1 µM) | > 100 | 0.3 (≈ 0.821 µM) | 0.3 (≈ 0.821 µM) | 0.1 (≈ 0.274 µM) | 0.01 (≈ 0.0274 µM) | MIC ([2]; AMO-insensitive strain NO. 2): 0.25 µg/mL (≈ 0.684 µM); MIC ([2]; AMO-insensitive strain NO. 3): 0.25 µg/mL (≈ 0.684 µM); MIC ([2]; Helicobacter pylori): 0.25 µg/mL (≈ 0.684 µM); Antibody titer (average) ([11]; 10 mg/kg): 0.40; Number of Bacteria (average) (log CFU) ([11]; 10 mg/kg): 5.0 log CFU; Number of Ulcers discovered ([11]; 10 mg/kg, two times a day for two weeks): 4/5; responders at 10 mg/kg ([11]; Helicobacter pylori, ATCC43504, 336 h, 10 mg/kg, two times a day for two weeks, read-out: Eradication rate (%)): 20%
2 | Gentamycin [GEM] |  |  |  |  |  |  |  |  |  |  |  |  |  |  |  |  |  |  |  | MIC [3]: 0.3 µg/mL; MIC [4]: 1.0 µg/mL; MIC [12]: 1.0 µg/mL; MIC [5]: 0.3 µg/mL; MIC [6]: 0.3 µg/mL; MIC [7]: 1.0 µg/mL; MIC [13]: 0.3 µg/mL; MIC [9]: 1.0 µg/mL; MIC [14]: 0.1 µg/mL
3 | CC[C@H]1OC(=O)[C@H](C)[C@@H](O[C@H]2C[C@@](C)(OC)[C@@H](O)[C@H](C)O2)[C@H](C)[C@@H](O[C@@H]2O[C@H](C)C[C@H](N(C)C)[C@H]2O)[C@](C)(OC)C[C@@H](C)C(=O)[C@H](C)[C@@H](O)[C@]1(C)O [CAM, Clarithromycin] | 0.3 (≈ 0.401 µM) | 0.3 (≈ 0.401 µM) | 0.3 (≈ 0.401 µM) | 0.1 (≈ 0.134 µM) | < 0.015 | 0.1 (≈ 0.134 µM) | 0.03 (≈ 0.0401 µM) | 32 (≈ 42.8 µM) | 8 (≈ 10.7 µM) | 64 (≈ 85.6 µM) | 32 (≈ 42.8 µM) | 50 (≈ 66.8 µM) | 50 (≈ 66.8 µM) | 100 (≈ 134 µM) | > 100 | 25 (≈ 33.4 µM) | 0.1 (≈ 0.134 µM) | 0.1 (≈ 0.134 µM) | 0.02 (≈ 0.0267 µM) | MIC ([2]; Helicobacter pylori, AMO-insensitive strain NO. 1, read-out: MIC): 0.06 µg/mL (≈ 0.0802 µM); MIC ([2]; Helicobacter pylori, AMO-insensitive strain NO. 2, read-out: MIC): 0.03 µg/mL (≈ 0.0401 µM); MIC ([2]; Helicobacter pylori, AMO-insensitive strain NO. 3, read-out: MIC): 0.06 µg/mL (≈ 0.0802 µM); Antibody titer (average) ([11]; 30 mg/kg): 0.35; Number of Bacteria (average) (log CFU) ([11]; 30 mg/kg): 5.2 log CFU; Number of Ulcers discovered ([11]; 30 mg/kg, two times a day for two weeks): 4/5; responders at 30 mg/kg ([11]; Helicobacter pylori, ATCC43504, 336 h, 30 mg/kg, two times a day for two weeks, read-out: Eradication rate (%)): 20%
